Measurements reported in patent US20260022142A1, “MACROCYCLIC IMMUNOMODULATORS” (Bristol-Myers Squibb Company, priority 2022, published 2026).
Bridge positions count the residues as written; N and C are the ends. Square brackets hold non-standard residues; d marks the D form. Peptide text beside a SMILES is read from it. * marks the point of attachment. ξ: configuration not given here. Bip = N[C@@H](Cc1ccc(-c2ccccc2)cc1)C(=O)O; Phe(3-Me) = Cc1cccc(C[C@H](N)C(=O)O)c1; Val(3-OH) = CC(C)(O)[C@H](N)C(=O)O; hArg = N=C(N)NCCCC[C@H](N)C(=O)O; Cha = N[C@@H](CC1CCCCC1)C(=O)O; aThr = C[C@H](O)[C@H](N)C(=O)O; Thr(3ξ) = CC(O)[C@H](N)C(=O)O; 12Ado = NCCCCCCCCCCCC(=O)O; Carboxymethyl = O=C(O)C*; Orn = NCCC[C@H](N)C(=O)O; Aun = NCCCCCCCCCCC(=O)O; Dab = NCC[C@H](N)C(=O)O; Dap = NC[C@H](N)C(=O)O; AEEA = NCCOCCOCC(=O)O

These compounds were tested against T1, PD-1/PD-L1 interaction (PE-labeled human PD-L1-Ig binding to Jurkat cell line over-expressing human PD-1) (Homo sapiens, UniProt Q15116) (assay: Jurkat-PD-1 Cell Binding High-Content Screening Assay (CBA)). Details: Jurkat cell line over-expressing human PD-1; PE-labeled PD-L1-Ig 20 nM final; read-out: Jurkat hPD1-PDL1 IC50.
T1 construct: expressed in transfected cells; host or cells: Jurkat
Format: cell-based
Summary of the method: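 Jurkat cells over-expressing human PD-1 (8×10^3 per well, DMEM/10% FCS) preincubated with compound 2 h at 37° C, then PE-labeled human PD-L1-Ig (20 nM final) added for 1 h. Cells fixed with paraformaldehyde, Hoechst-stained, and bound fluorescence quantified by high-content imaging.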

T1 sequence (Q15116 25-288): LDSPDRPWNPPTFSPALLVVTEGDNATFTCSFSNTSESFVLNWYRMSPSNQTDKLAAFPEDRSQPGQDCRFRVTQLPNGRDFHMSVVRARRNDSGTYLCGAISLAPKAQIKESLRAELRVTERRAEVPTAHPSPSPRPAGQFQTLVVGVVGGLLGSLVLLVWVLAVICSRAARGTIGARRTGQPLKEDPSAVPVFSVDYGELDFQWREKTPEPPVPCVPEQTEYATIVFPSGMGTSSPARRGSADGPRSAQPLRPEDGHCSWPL

| IC50 [nM] | SMILES |
| --- | --- |
| 21 | CC(C)C[C@H]1NC(=O)[C@H](CCCN)NC(=O)[C@H](C(C)C)NC(=O)[C@H](Cc2ccc(-c3ccccc3)cc2)NC(=O)[C@H](C(C)C)NC(=O)[C@H](Cc2c[nH]c3ccccc23)NC(=O)[C@H](CC(=O)O)NC(=O)[C@H](Cc2ccc(OCC(=O)O)cc2)NC(=O)[C@H](CN)NC(=O)CSC[C@@H](C(=O)N[C@@H](C)C(=O)N[C@@H](CCCN)C(=O)NCC(=O)NCCCCCCCCCCC(=O)O)NC(=O)[C@H]([C@@H](C)O)NC(=O)[C@H](C(C)C)NC(=O)[C@H](CC2CCCCC2)NC(=O)[C@H](Cc2c[nH]cn2)NC1=O [Compound 1086] ({CH2CO}-[Dap]Y(Carboxymethyl)DWV[Bip]V[Orn][dL]H[Cha]VTCA[Orn]G[Aun]-OH; thioether N-14) |
| 14.8 | Cc1cccc(C[C@@H]2NC(=O)[C@H](CC(=O)O)NC(=O)[C@H](Cc3ccc(OCC(=O)O)cc3)NC(=O)[C@H](CC(N)=O)NC(=O)CSC[C@@H](C(=O)N[C@@H](CCC(=O)O)C(=O)NCCCCCCCCCCC(=O)O)NC(=O)[C@H]([C@H](C)O)NC(=O)[C@H](C(C)C)NC(=O)[C@H](CC3CCCCC3)NC(=O)[C@H](CCN)NC(=O)[C@@H](CC(C)C)NC(=O)[C@H](CCCN)NC(=O)[C@H](Cc3ccc(O)cc3)NC(=O)[C@H](Cc3ccc(-c4ccccc4)cc3)NC(=O)[C@H](C(C)C)NC2=O)c1 [Compound 3376] ({CH2CO}-NY(Carboxymethyl)D[Phe(3-Me)]V[Bip]Y[Orn][dL][Dab][Cha]V[aThr]CE[Aun]-OH; thioether N-14) |
| 24.3 | CC(=O)NCCCC[C@@H]1NC(=O)[C@H](Cc2ccc(-c3ccccc3)cc2)NC(=O)[C@H](Cc2ccc(O)cc2)NC(=O)[C@H](Cc2cccc(C)c2)NC(=O)[C@H](CC(=O)O)NC(=O)[C@H](Cc2ccc(OCC(=O)O)cc2)NC(=O)[C@H](CCN)NC(=O)CSC[C@@H](C(=O)N[C@@H](CCN)C(=O)N[C@@H](CO)C(=O)NCCCCCCCCCCCC(=O)O)NC(=O)[C@H](CCC(=O)O)NC(=O)[C@H](C(C)(C)O)NC(=O)[C@H](CC2CCCCC2)NC(=O)[C@H](CCN)NC(=O)[C@@H](CC(C)C)NC(=O)[C@H](CCCN)NC1=O [Compound 3621] ({CH2CO}-[Dab]Y(Carboxymethyl)D[Phe(3-Me)]Y[Bip]K(Ac)[Orn][dL][Dab][Cha][Val(3-OH)]EC[Dab]S[12Ado]-OH; thioether N-14) |

Second part, the compound before the results:

| SMILES | IC50 [nM] |
| --- | --- |
| Cc1cccc(C[C@@H]2NC(=O)[C@H](CC(=O)O)NC(=O)[C@H](Cc3ccc(OCC(=O)O)cc3)NC(=O)[C@H](C(C)O)NC(=O)CSC[C@@H](C(=O)NCCOCCOCC(=O)NCCCCCCCCCCC(=O)O)NC(=O)[C@H](CCCCN)NC(=O)[C@H](C(C)C)NC(=O)[C@H](CC3CCCCC3)NC(=O)[C@H](CCN)NC(=O)[C@@H](CC(C)C)NC(=O)[C@H](CCN)NC(=O)[C@H](C(C)C)NC(=O)[C@H](Cc3ccc(-c4ccccc4)cc3)NC(=O)[C@H](C(C)C)NC2=O)c1 (stereo partly drawn) [Compound 3257] ({CH2CO}-[Thr(3ξ)]Y(Carboxymethyl)D[Phe(3-Me)]V[Bip]V[Dab][dL][Dab][Cha]VKC[AEEA][Aun]-OH; thioether N-14) | 5.3 |
| CC(C)C[C@H]1NC(=O)[C@H](CCCN)NC(=O)[C@H](C(C)C)NC(=O)[C@H](Cc2ccc(-c3ccccc3)cc2)NC(=O)[C@H](C(C)C)NC(=O)[C@H](Cc2c[nH]c3ccccc23)NC(=O)[C@H](CC(=O)O)NC(=O)[C@H](Cc2ccc(OCC(=O)O)cc2)NC(=O)[C@H](CCCCNC(=N)N)NC(=O)CSC[C@@H](C(=O)N[C@@H](CCN)C(=O)NCCOCCOCC(=O)N[C@@H](CCCN)C(=O)NCCCCCCCCCCCC(=O)O)NC(=O)[C@H](CO)NC(=O)[C@H](C(C)C)NC(=O)[C@H](CC2CCCCC2)NC(=O)[C@H](CC(N)=O)NC1=O [Compound 3177] ({CH2CO}-[hArg]Y(Carboxymethyl)DWV[Bip]V[Orn][dL]N[Cha]VSC[Dab][AEEA][Orn][12Ado]-OH; thioether N-14) | 27.3 |
